The record followed here is publication PMC9099256, “Toward Novel [^18F]Fluorine-Labeled Radiotracers for the Imaging of α-Synuclein Fibrils” (Frontiers in Aging Neuroscience, 2022).

Molecules are shown by their SMILES.

Data set [1] addresses tau fibrils (Homo sapiens, UniProt P10636). In words: Competition binding assay against [3H]DCVJ, tau fibrils. The settings on record: for Ki: vs [3H]DCVJ 20 nM, fibrils 125 nM. How it is done: (§1) Fixed concentrations (125 nM) of Aβ1–42, tau aggregates, and [^3H]DCVJ (10 and 20 nM, respectively) were used with different concentrations of cold d2, d4, d6, and d8 from 1 to 1,000 nM. The experiment was performed in quadruplicates for each concentration. Further procedures followed the same already described in section “Competition Binding Assays for α-Syn Fibrils.”
(§2) The binding affinity of [^18F]d2, [^18F]d4, [^18F]d6, and [^18F]d8 to human recombinant α-syn, Aβ, and tau fibrils was assayed in a competition binding assay with non-radioactive ligands d2, d4, d6, and d8 against tritiated 9-(2,2-dicyanovinyl)julolidine (DCVJ) (Figure 3 and Supplementary Material). […] Although being a pan tracer makes DCVJ a less suitable tracer for the in vivo imaging of any of the protein aggregates, it makes it, however, a useful tool for evaluating the usefulness of other ligands as tracers for various proteinopathies in competitive binding experiments, as well as for scanning the fibril-binding sites in a set of in silico blind dockings.
Recombinant tau monomer was dissolved at 300 µg/mL concentration in 20 mM Tris HCl pH 8.0, 100 mM NaCl, 25 μM low molecular weight heparin, and 0.5 mM DTT. The dissolved peptide was incubated at 37°C for 48 hours with shaking at 900 rpm. To determine the concentration of fibrils, the fibril reaction mixer was centrifuged at 12000 g for 5 min and the fibril pellet was washed 3 times in 20 mM Tris-HCl pH 7.4 to separate fibrils from monomer. Supernatants from all centrifugation steps were combined and the concentration of monomer in the supernatant was determined using BCA assay, alongside a BSA standard curve. The concentration of the fibrils formed was determined by subtracting the amount of tau monomer in the supernatant from initial amount used for fibrillation.

Data set [2] addresses T1, Aβ1–42 fibrils (Homo sapiens, UniProt P05067).
T1 construct: 1 mg of β-amyloid1−42 peptide was dissolved in 50 μL DMSO
In words: Competition binding assay against [3H]DCVJ, Aβ1–42 fibrils. The settings on record: for Ki: vs [3H]DCVJ 10 nM, fibrils 125 nM. How it is done:
as §1, §2
1 mg of β-amyloid1−42 peptide was dissolved in 50 μL DMSO. 925 μL of Milli-Q water was added to the above. Then 25 μL of 1M Tris HCl, pH 7.4 was added to bring the final peptide concentration to 1 mg/mL. The dissolved peptide was then incubated for 30 h at 37°C with shaking at 900 rpm. To determine the concentration of fibrils, the fibril reaction mixer was centrifuged at 12000 g for 5 min and the fibril pellet was washed three times in 20 mM Tris-HCl pH 7.4 to separate fibrils from monomer. Supernatant from all centrifugation steps were combined and the concentration of monomer in the supernatant was determined in a BCA assay, alongside a BSA standard curve. The concentration of the fibrils formed was determined by subtracting the amount of β-amyloid1−42 monomer in the supernatant from initial amount used for fibrillation.

The target of data set [3] is T2, human recombinant α-syn fibrils (Homo sapiens, UniProt P37840).
T2 construct: made in house; host or cells: E. coli BL21(DE3), plasmid pET11-D
Description: Competition binding assay against [3H]DCVJ, α-syn fibrils. To be noted: for selectivity over Aβ and tau aggregates: abstract; for Ki: non-radioactive ligand vs [3H]DCVJ 10 nM, α-syn fibrils 125 nM, 2 h 37°C. How it is done:
The competitor reaction was diluted with 20 mM Tris-HCl, pH 7.4 to a final volume of 200 μL per well. After incubation for 2 h at 37°C, the binding mixtures were filtered through a Perkin Elmer GF/B glass filter via a TOMTEC cell harvester and immediately washed three times with 1 mL of deionized water. Filters containing the bound ligands were dried and mixed with 3 mL of Betaplate scint solution (PerkinElmer Life Sciences) and incubated for 2 h before counting in a Wallac 1450 MicroBeta TriLux Liquid Scintillation Counter (PerkinElmer Life Sciences). For the determination of the inhibition constants, data were analyzed using GraphPad Prism software (version 7.0) to obtain IC50 values by fitting the data to the equation Y = bottom + (top - bottom)/(1 + 10(x - log IC50). Ki values were calculated from IC50 values using the equation Ki = IC50/(1 + [radioligand]/Kd).
as §2
Purified recombinant α-syn monomer (10 mg/mL) was incubated in PBS, pH 7.4, at 37 °C by shaking at 900 rpm in an Eppendorf Thermomixer for up to 84 hours. To determine the concentration of fibrils, the fibril reaction mixer was centrifuged at 12000 g for 5 min and the fibril pellet was washed 3 times with 20 mM Tris-HCl pH 7.4 to separate fibrils from monomer. Supernatant from all the centrifugation steps were combined and the concentration of monomer in the supernatant was determined using SDS-PAGE. The concentration of the fibrils formed was determined by subtracting the mount of α-syn monomer in the supernatant from initial amount use for fibrillation process.

A short description of data set [4]: In vitro plasma protein binding (ultrafiltration). The class given is in vitro ADME, human. To be noted: for fp (free plasma fraction): human plasma, ultrafiltration, n = 3. The procedure: To estimate the free fraction (fp) of the radioligands in the plasma, an ultrafiltration method was used. Approximately 1 MBq of [^18F]d2, [^18F]d4, [^18F]d6, and [^18F]d8 were added to 450 μL of Seronorm Human plasma (Invicon GmbH, Munich, Germany), and the mixture was incubated for 10 min. After incubation, 150 μL of plasma was transferred into 3 ultrafiltration tubes (Centrifree YM-30; cutoff 30,000 MW; Millipore) and centrifuged at 8,000 rpm for 10 min. Equal aliquots of the ultrafiltrate (Cfree), and of the plasma (Ctotal) were counted for their radioactivity with a γ-counter. The fp of the radioligands was calculated as fp = Cfree/Ctotal (n = 3).

The nature of data set [5]: Log D determination (octanol/PBS pH 7.4). The settings on record: for logD: octanol/PBS pH 7.4, n = 3. The class given is physicochemical. How it is done: To a solution of [^18F]d2, [^18F]d4, [^18F]d6, and [^18F]d8 (0.5–1.0 MBq) in 0.5 mL octanol, 0.5 mL PBS (pH 7.4) was added in a 1.5 mL Eppendorf vial. The vials were vigorously vortexed for 10 min. To achieve efficient phase separation, the vials were centrifuged for 10 min at 13,000 rpm in a Heraeus Biofuge 13 centrifuge. Aliquots (100 μL) of the aqueous and the octanol phase were collected carefully and the amount radioactivity in the respective samples was quantified using a γ-counter. The log octanol/PBS values were calculated from the means of n = 3 separate determinations.

Data set [6] can be described thus: Biodistribution experiments. To be noted: healthy mice, i.v. The data set is classed as in vivo, healthy C57BL/6J mice. The procedure: The ethanol solutions containing the tracers [^18F]d2, [^18F]d4, [^18F]d6, and [^18F]d8 were diluted with DMSO, Tween-20, and saline added consecutively to achieve a final concentration of 2.4, 2.4, and 0.4% of ethanol, DMSO, and Tween-20, respectively. The pH was adjusted with 0.05 N aqueous sodium hydroxide solution. 1.5–2.5 MBq of [^18F]d2, [^18F]d4, [^18F]d6, and [^18F]d8 prepared in the above solvent mixture were administered to the mice via the caudal vein under isoflurane anesthesia. The mice were sacrificed at 5 and 60 min p.i. The following organs/tissues were extracted: blood, heart, lung, liver, stomach, pancreas, colon, small intestine, kidney, muscle, bone, tail, and the brain. The radioactivity in the pre-weighed tissue samples was determined using a γ-counter. Data are expressed as a percent of the injected dose per gram tissue (% ID/g; mean ± sd, n = 3).

A short description of data set [7]: In vivo PET-MRI dynamic scan with biodistribution. Also on record: species or system healthy C57BL/6J mice. The settings on record: healthy mice, i.v., biodistribution after PET dynamic scan. The procedure:
For PET imaging [^18F]d6 and [^18F]d8 were prepared as described in section “Biodistribution Experiments” and ∼11 MBq was injected via the caudal vein in the mice (n = 3 for each tracer). PET was recorded on nanoScan PET/MRI (Mediso Medical Imaging System) under isoflurane anesthesia. PET was continuously recorded in list mode for 120 min and consisted of 36 frames (1 × 60 s; 30 × 10 s; 1 × 600 s; 1 × 900 s; and 3 × 1800 s) while anesthesia was maintained. Data were reconstructed using Nucline nanoScan 3.00.021.0000 software, employing a three-dimensional ordered subset expectation maximum (OSEM3D) algorithm without a scatter and attenuation correction. Tissue time–activity curves (TACs) were obtained by projecting the defined ROI onto all frames of the dynamic PET scans. At 2 h after the PET dynamic scan, the mice were promptly euthanized, the rest of the protocol followed as already described in section “Biodistribution Experiments.”

tau fibrils, sequence (P10636 2-758): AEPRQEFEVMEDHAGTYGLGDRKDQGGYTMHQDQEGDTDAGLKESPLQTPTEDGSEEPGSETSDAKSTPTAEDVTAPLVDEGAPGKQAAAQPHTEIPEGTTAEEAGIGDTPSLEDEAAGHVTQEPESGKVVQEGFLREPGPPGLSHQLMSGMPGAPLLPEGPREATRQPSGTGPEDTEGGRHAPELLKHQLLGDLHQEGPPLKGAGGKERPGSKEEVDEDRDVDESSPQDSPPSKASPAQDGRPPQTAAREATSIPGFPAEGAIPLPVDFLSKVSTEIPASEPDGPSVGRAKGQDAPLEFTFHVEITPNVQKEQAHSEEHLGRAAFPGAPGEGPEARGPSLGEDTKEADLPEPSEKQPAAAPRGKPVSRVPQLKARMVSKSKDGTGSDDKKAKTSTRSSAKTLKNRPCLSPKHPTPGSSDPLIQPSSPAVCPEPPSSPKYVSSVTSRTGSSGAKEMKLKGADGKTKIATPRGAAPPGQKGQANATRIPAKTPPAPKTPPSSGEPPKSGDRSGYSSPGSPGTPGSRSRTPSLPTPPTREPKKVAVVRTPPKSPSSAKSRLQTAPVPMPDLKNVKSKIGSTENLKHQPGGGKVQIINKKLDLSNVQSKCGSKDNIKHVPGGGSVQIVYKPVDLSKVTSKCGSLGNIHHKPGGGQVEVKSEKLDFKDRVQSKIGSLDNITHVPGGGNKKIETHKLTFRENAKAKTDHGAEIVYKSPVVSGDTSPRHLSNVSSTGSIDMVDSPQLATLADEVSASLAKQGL
T1 sequence (P05067 672-713): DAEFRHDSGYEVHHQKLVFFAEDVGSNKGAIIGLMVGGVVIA

With `N#CC(C#N)=Cc1cc2c3c(c1)CCCN3CCC2` [DCVJ, 9-(2,2-dicyanovinyl)julolidine, reference compound], the equilibrium dissociation constant (Kd) in data set [1] (radioligand/pan-amyloid ligand) was 15.6 nM; in data set [2] (radioligand/pan-amyloid ligand, read-out: Kd for Aβ), 8.9 nM; in data set [3] (radioligand/pan-amyloid ligand), 4.42 nM.

On to `COc1ccc(-c2csc(-c3nc(-c4ccc5c(c4)OCO5)cs3)n2)cc1[18F]` [[^18F]d2, 4-(benzo[d][1,3]dioxol-5-yl)-4′-(3-[^18F]fluoro-4-methoxyphenyl)-2,2′-bithiazole], for which the “fp (free plasma fraction)” value in data set [4] is reported as 0.25 ± 0.01%. The compound further gave a log distribution coefficient (logD) in data set [5] of 3.1 ± 0.09. Also, in data set [6], the “brain uptake at 5 min p.i.” value was 1.58 %ID/g and the “brain uptake at 60 min p.i.” value turned out to be 1.93 %ID/g.

Regarding `COc1ccc(-c2csc(-c3nc(-c4cnc5c(c4)OCO5)cs3)n2)cc1[18F]` [[^18F]d4, 6-(4′-(3-[^18F]fluoro-4-methoxyphenyl)-[2,2′-bithiazol]-4-yl)-[1,3]dioxolo[4,5-b]pyridine], in data set [4] ([18F]d8 vs [18F]d6, [18F]d4 vs [18F]d2), the “fp relative to benzodioxole counterpart” value was approximately 2 times. The “fp (free plasma fraction)” value in data set [4] is given as 0.45 ± 0.03%. For the same compound, the “reduction of log D versus benzodioxole counterpart” value in data set [5] ([18F]d4 vs [18F]d2, [18F]d8 vs [18F]d6) is reported as “approximately 3.2%”. Besides, the pH-dependent lipophilicity (logD) in data set [5] worked out at 3 ± 0.04. In data set [6], the “brain uptake at 5 min p.i.” value is given as 4.63 %ID/g and the “brain uptake at 60 min p.i.” value was 3.86 %ID/g.

As to `[18F]c1ccc(-c2csc(-c3nc(-c4ccc5c(c4)OCO5)cs3)n2)cn1` [[^18F]d6, 4-(benzo [d][1,3]dioxol-5-yl)-4′-(6-[^18F]fluoropyridin-3-yl)-2,2′-bithiazole], the “fp (free plasma fraction)” value in data set [4] is 0.14 ± 0.02%. Also, the “brain uptake at 120 min p.i.” value in data set [7] was determined as 1.04 %ID/g. For the same compound, the logD in data set [5] worked out at 2.8 ± 0.09. In data set [6], the “brain uptake at 5 min p.i.” value came out at 5.79 %ID/g and the “brain uptake at 60 min p.i.” value was found to be 1.75 %ID/g.

On to `COc1ccc(-c2csc(-c3nc(-c4ccc5c(c4)OCO5)cs3)n2)cc1F` [d2, 4-(benzo[d][1,3]dioxol-5-yl)-4'-(3-fluoro-4-methoxyphenyl)-2,2'-bithiazole], for which the inhibition constant Ki in data set [1] is more than 1000 nM. Moreover, in data set [2], the inhibition constant (Ki) was 242 nM. Besides, in data set [3], the “selectivity over Aβ” value is listed as “about 200 fold”; the selectivity over tau is ~1,000 fold; the “selectivity over Aβ and tau aggregates” value is reported as more than 200 fold; the Ki is 1.22 nM.

Regarding `COc1ccc(-c2csc(-c3nc(-c4cnc5c(c4)OCO5)cs3)n2)cc1F` [d4, 6-(4'-(3-fluoro-4-methoxyphenyl)-[2,2'-bithiazol]-4-yl)-[1,3]dioxolo[4,5-b]pyridine], the figures for the Ki in data set [1], in data set [2] and in data set [3] were more than 1000 nM, 275 nM and 0.66 nM, respectively. The “selectivity over Aβ and tau aggregates” value in data set [3] was more than 200 fold.

For the compound `Fc1ccc(-c2csc(-c3nc(-c4ccc5c(c4)OCO5)cs3)n2)cn1` [d6, 4-(benzo[d][1,3]dioxol-5-yl)-4'-(6-fluoropyridin-3-yl)-2,2'-bithiazole], the Ki in data set [1] is 966 nM; in data set [2] it was 237 nM; in data set [3], 1.21 nM. For the same compound, in data set [3], the “selectivity over Aβ and tau aggregates” value is on record as more than 200 fold.

As for `Fc1ccc(-c2csc(-c3nc(-c4cnc5c(c4)OCO5)cs3)n2)cn1` [d8, 6-(4'-(6-fluoropyridin-3-yl)-[2,2'-bithiazol]-4-yl)-[1,3]dioxolo[4,5-b]pyridine], the Ki in data set [1] was more than 1000 nM; in data set [2], 386 nM; in data set [3] it was 0.1 nM. Also, the “selectivity over Aβ and tau aggregates” value in data set [3] was more than 200 fold.
